In patent publication US20080102497A1, “ENZYMATIC HYDROLYSIS OF STARCH” (priority 2006, published 2008):
Read-outs that look alike come from different tables or passages of the source.

Assays:
[1] = biological target: T1, α-amylase from bovine pancreas (Bos taurus, UniProt Q3MHH8); test: hydrolysis of raw corn starch at pH 5.3 or 7.0, reducing sugar by DNSA; assay type: biochemical; settings: for Relative Activity: 37° C., 20 min
T1 construct: The α-amylase from bovine pancreas; from tissue; host or cells: bovine pancreas
T1 sequence (Q3MHH8 16-511): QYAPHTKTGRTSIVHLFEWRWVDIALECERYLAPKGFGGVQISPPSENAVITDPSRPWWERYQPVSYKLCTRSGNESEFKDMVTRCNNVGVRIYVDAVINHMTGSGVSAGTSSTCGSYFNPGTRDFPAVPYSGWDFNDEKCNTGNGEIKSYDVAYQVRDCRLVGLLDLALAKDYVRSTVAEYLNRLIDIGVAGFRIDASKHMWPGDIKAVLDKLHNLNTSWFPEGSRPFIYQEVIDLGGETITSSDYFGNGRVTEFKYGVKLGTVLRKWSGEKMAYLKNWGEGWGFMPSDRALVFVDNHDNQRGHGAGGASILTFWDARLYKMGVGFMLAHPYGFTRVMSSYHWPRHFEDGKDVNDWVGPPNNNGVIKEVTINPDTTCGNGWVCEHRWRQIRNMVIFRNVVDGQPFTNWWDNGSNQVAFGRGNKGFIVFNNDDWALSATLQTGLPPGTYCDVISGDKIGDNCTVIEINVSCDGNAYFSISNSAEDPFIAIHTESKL
Description: Thereafter, 40 μl of each pre-incubation solution was added to 15 mg raw corn starch, and the reaction mixture incubated at 37° C. for 20 minutes. The control reaction mixture contained substrate, enzyme, and buffer but no manganese ion. The starch hydrolysis reaction was stopped by combining the reaction mixture with a solution containing DNSA and heating for 30 min at 85° C. The absorbance of the control and test samples was measured at 562 nm to monitor the amount of reducing sugar in each sample.

[2] = test system: glucoamylase from Rhizopus sp.; test: temperature effect on conversion of raw corn starch; assay type: biochemical; settings: 1 mM Mn^++; for % Conversion: 10 min, raw corn starch, pH 5.3
Description: An enzyme solution of the glucoamylase from Rhizopus sp. […] Thereafter, 50 μl of the enzyme solution was added to each of four samples containing 15 mg raw corn starch and incubated at 22° C., 32° C., 40° C. or 50° C., respectively, for 10 minutes.

[3] = biological target: T2, α-amylase from Bacillus licheniformis (Bacillus licheniformis, UniProt P06278); test: hydrolysis of cooked corn starch varieties; assay type: biochemical; settings: pH 5.2, 37° C., 10 min
β-amylase from barley = β-amylase from barley (Hordeum vulgare, UniProt P16098); test: hydrolysis of cooked corn starch varieties; assay type: biochemical; settings: pH 5.2, 37° C., 10 min
Description: The separate reaction mixtures were incubated at 37° C. for 10 minutes. The control reaction mixture contained enzyme, buffer, and starch but no manganese ion. The starch hydrolysis reaction was stopped by combining the reaction mixture with a solution containing DNSA and heating for 30 min at 85° C. The absorbance of the control and test samples was measured at 562 nm to monitor the amount of reducing sugar in each sample.

[4] = biological target: T2, α-amylase from Bacillus licheniformis; test: hydrolysis of cooked dent corn starch; assay type: biochemical; settings: cooked dent corn starch 0.5%, pH 5.2, 37° C., 10 min
[5] = biological target: T3, α-amylase from human saliva (Homo sapiens, UniProt P0DUB6); test: hydrolysis of cooked dent corn starch; assay type: biochemical; settings: cooked dent corn starch 0.5%, pH 5.2, 37° C., 10 min
T3 construct: the α-amylase from human saliva; from tissue; host or cells: human saliva
T3 sequence (P0DUB6 16-511): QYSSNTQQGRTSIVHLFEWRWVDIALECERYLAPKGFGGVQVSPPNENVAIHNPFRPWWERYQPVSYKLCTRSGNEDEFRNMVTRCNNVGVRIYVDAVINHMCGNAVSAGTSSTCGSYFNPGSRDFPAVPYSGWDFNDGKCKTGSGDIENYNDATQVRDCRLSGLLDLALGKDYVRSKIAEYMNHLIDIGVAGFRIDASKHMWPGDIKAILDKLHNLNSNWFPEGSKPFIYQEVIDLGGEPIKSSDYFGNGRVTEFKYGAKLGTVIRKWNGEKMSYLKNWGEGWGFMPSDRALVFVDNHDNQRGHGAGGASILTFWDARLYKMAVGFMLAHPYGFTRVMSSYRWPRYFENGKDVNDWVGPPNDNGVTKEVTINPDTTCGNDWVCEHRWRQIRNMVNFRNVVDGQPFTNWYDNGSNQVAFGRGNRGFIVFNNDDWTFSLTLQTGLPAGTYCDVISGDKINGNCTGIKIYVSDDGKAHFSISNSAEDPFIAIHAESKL

[6] = biological target: glucoamylase from Aspergillus Niger (Aspergillus niger, UniProt P69328); settings: cooked dent corn starch 0.5%, pH 5.2, 37° C., 10 min
Description: The separate reaction mixtures were incubated at 37° C. for 10 minutes. The control reaction mixtures contained enzyme, buffer, and starch but no manganese ion. The starch hydrolysis reaction was stopped by combining the reaction mixture with a solution containing DNSA and heating for 30 min at 85° C. The absorbance of the control and test samples was measured at 562 nm to monitor the amount of reducing sugar in each sample.

[7] = test system: enzyme mixture of purified glucoamylase from mushroom and purified α-amylase from barley; test: hydrolysis of raw corn starch by enzyme mixture, reducing sugar by DNSA; assay type: biochemical; settings: pH 5.3, 37° C., 20 min
[8] = 0.01 mM Mn^++, cooked high-amylose V corn starch 0.5%
[9] = 0.01 mM Mn^++, cooked soluble corn starch 0.5%
[10] = 0.01 mM Mn^++, cooked waxy corn starch 0.5%
[11] = 0.1 mM Mn^++, cooked dent corn starch 0.5%
[12] = 0.1 mM Mn^++, cooked high-amylose V corn starch 0.5%
[13] = 0.1 mM Mn^++, cooked soluble corn starch 0.5%
[14] = 0.1 mM Mn^++, cooked waxy corn starch 0.5%
[15] = 1 mM Mn^++, cooked dent corn starch 0.5%
[16] = 1 mM Mn^++, cooked soluble corn starch 0.5%
[17] = 10 mM Mn^++, cooked dent corn starch 0.5%
[18] = 10 mM Mn^++, cooked high-amylose V corn starch 0.5%
[19] = 10 mM Mn^++, cooked soluble corn starch 0.5%
[20] = 10 mM Mn^++, cooked waxy corn starch 0.5%

Sequence of β-amylase from barley (P16098 whole entry): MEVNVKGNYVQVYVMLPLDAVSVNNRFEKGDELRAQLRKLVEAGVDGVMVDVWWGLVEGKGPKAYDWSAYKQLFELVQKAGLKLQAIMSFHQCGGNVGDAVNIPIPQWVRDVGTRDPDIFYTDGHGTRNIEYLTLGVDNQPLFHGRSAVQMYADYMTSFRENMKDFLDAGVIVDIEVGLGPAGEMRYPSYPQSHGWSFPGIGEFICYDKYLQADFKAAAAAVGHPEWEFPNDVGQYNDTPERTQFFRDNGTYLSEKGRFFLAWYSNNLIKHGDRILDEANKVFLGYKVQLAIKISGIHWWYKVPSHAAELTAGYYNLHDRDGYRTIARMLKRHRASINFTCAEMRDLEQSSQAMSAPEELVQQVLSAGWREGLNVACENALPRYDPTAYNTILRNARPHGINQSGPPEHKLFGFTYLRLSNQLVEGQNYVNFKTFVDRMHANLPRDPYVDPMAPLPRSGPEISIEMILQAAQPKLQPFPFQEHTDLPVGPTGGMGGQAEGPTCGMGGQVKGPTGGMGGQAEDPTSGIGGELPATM
Sequence of glucoamylase from Aspergillus Niger (P69328 25-640): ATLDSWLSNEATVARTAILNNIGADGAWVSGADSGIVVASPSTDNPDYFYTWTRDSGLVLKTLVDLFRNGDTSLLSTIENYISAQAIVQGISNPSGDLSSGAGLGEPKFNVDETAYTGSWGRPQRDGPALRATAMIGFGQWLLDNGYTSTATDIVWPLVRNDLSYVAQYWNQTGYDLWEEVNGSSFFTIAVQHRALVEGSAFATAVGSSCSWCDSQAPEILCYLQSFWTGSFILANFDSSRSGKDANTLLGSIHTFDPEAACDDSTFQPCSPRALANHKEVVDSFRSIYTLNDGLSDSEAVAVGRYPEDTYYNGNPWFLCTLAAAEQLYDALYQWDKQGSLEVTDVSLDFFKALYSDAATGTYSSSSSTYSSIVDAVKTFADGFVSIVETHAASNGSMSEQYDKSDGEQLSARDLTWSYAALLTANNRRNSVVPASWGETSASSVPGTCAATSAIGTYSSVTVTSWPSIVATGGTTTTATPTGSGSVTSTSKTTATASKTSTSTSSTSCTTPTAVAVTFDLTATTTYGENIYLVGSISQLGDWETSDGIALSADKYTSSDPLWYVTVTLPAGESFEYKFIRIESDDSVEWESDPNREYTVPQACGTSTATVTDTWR
T2 sequence (P06278 30-512): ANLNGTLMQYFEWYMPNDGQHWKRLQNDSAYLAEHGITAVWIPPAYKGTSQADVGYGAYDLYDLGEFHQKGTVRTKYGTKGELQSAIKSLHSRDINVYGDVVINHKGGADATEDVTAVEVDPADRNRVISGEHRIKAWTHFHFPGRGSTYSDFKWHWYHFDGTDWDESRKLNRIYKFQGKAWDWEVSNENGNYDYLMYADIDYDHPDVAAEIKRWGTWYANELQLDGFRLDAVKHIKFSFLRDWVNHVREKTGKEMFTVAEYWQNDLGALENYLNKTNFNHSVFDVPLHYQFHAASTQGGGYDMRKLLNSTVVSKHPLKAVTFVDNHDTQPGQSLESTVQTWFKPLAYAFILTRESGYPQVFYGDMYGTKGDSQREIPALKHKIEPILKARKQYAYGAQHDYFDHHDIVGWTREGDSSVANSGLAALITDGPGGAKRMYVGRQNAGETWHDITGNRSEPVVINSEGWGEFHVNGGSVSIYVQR

Compound: [Mn+2] [Mn^++, manganese ions]
- Relative Activity ([1]; 0.01 mM Mn^++, pH 5.3 sodium acetate buffer): 108.3%
- Relative Activity ([1]; 0.01 mM Mn^++, pH 7.0 potassium phosphate buffer): 103.5%
- Relative Activity ([1]; 0.1 mM Mn^++, pH 5.3 sodium acetate buffer): 125.0%
- Relative Activity ([1]; 0.1 mM Mn^++, pH 7.0 potassium phosphate buffer): 103.5%
- Relative Activity ([1]; 1 mM Mn^++, pH 5.3 sodium acetate buffer): 145.2%
- Relative Activity ([1]; 1 mM Mn^++, pH 7.0 potassium phosphate buffer): 119.6%
- Relative Activity ([1]; 10 mM Mn^++, pH 5.3 sodium acetate buffer): 139.9%
- Relative Activity ([1]; 10 mM Mn^++, pH 7.0 potassium phosphate buffer): 95.7%
- pH dependence of Mn^++ activation (in words) ([1]; pH 5.3 vs 7.0): greater activation at a pH of 5.3 than at 7.0
- temperature dependence of Mn^++ activation (in words) ([2]; 22-50° C.): occurs at a wide temperature range
- % Conversion ([2]; 22° C.): 0.026%
- % Conversion ([2]; 32° C.): 0.064%
- % Conversion ([2]; 40° C.): 0.152%
- % Conversion ([2]; 50° C.): 0.274%
- Relative Activity [3, 8]: 116.5%
- Relative Activity [3, 9]: 118.3%
- Relative Activity [3, 10]: 118.3%
- Relative Activity [3, 11]: 124.4%
- Relative Activity [3, 12]: 135.5%
- Relative Activity [3, 13]: 128.1%
- Relative Activity [3, 14]: 126.9%
- Relative Activity [3, 15]: 128.7%
- Relative Activity [3, 16]: 135.8%
- Relative Activity [3, 17]: 147.8%
- Relative Activity [3, 18]: 160.1%
- Relative Activity [3, 19]: 162.7%
- Relative Activity [3, 20]: 155.8%
- Relative Activity (β-amylase from barley; 0.01 mM Mn^++, cooked dent corn starch 0.5%): 123.5%
- Relative Activity (β-amylase from barley; [8]): 111.2%
- Relative Activity (β-amylase from barley; [9]): 138.7%
- Relative Activity (β-amylase from barley; [10]): 114.2%
- Relative Activity (β-amylase from barley; [11]): 135.3%
- Relative Activity (β-amylase from barley; [12]): 123.3%
- Relative Activity (β-amylase from barley; [13]): 135.7%
- Relative Activity (β-amylase from barley; [14]): 129.9%
- Relative Activity (β-amylase from barley; [15]): 149.8%
- Relative Activity (β-amylase from barley; 1 mM Mn^++, cooked high-amylose V corn starch 0.5%): 136.3%
- Relative Activity (β-amylase from barley; [16]): 174.8%
- Relative Activity (β-amylase from barley; 1 mM Mn^++, cooked waxy corn starch 0.5%): 148.3%
- Relative Activity (β-amylase from barley; [17]): 210.1%
- Relative Activity (β-amylase from barley; [18]): 184.5%
- Relative Activity (β-amylase from barley; [19]): 199.6%
- Relative Activity (β-amylase from barley; [20]): 237.4%
- Relative Activity ([4]; 0.1 mM Mn^++): 124.4%
- Relative Activity ([4]; 1 mM Mn^++): 128.7%
- Relative Activity ([4]; 10 mM Mn^++): 147.8%
- Relative Activity ([5]; 0.01 mM Mn^++): 120.2%
- Relative Activity ([5]; 0.1 mM Mn^++): 147.5%
- Relative Activity ([5]; 1 mM Mn^++): 224.4%
- Relative Activity ([5]; 10 mM Mn^++): 275.6%
- Relative Activity ([6]; 0.01 mM Mn^++): 113.3%
- Relative Activity ([6]; 0.1 mM Mn^++): 126.1%
- Relative Activity ([6]; 1 mM Mn^++): 148.4%
- Relative Activity ([6]; 10 mM Mn^++): 186.9%
- Relative Activity ([7]; 0.01 mM Mn^++): 106.7%
- Relative Activity ([7]; 0.1 mM Mn^++): 124.7%
- Relative Activity ([7]; 1 mM Mn^++): 142.6%
- Relative Activity ([7]; 10 mM Mn^++): 143.5%
